In patent US9045481B2 (priority 2012, dated 2015):

Legend:
mu opioid receptor (mOR) = target: T1, mu opioid receptor (mOR) (Homo sapiens, UniProt P35372); assay: Mu opioid receptor radioligand binding; conditions: called weak affinity; read-out: Affinity at mu opioid receptors
T1 construct: expressed in transfected cells; host or cells: CHO or HEK293
Procedure: Established radioligand binding methods are used to evaluate the ability of the compounds to block reuptake of serotonin and dopamine in membrane preparations of synaptosomes. Equilibrium binding affinity values is determined for each compound at opioid receptors (μ and κ subtypes) and biogenic amine transporters (DAT and SERT). Where possible, binding experiments utilize membranes derived from CHO or HEK293 cells engineered to overexpress the human form of the receptor or transporter of interest. Radiolabeling of opioid receptors, and biogenic amine transporters utilizes conventional radioligands, buffers and incubation conditions according to published assays.
Test compounds, reference compounds and the radioligand (Kd value) are added to binding buffer. Assays are run with test or reference compound over a range of concentration (0.0001-10 uM) in triplicate using a 96-well sample plate containing radioligands specific for the target receptor or transporter. […] Bound radioactivity is counted in a Microbeta scintillation counter. Total bound radioactivity is estimated from triplicate wells containing no test or reference compound, together with nonspecific binding and filter blanks. The average bound radioactivity in the presence of the test compounds is expressed % inhibition=100%−% radioactivity bound. […]

[1] = CNS penetration across the blood brain barrier; type: in vivo, mice
Procedure: Mice are dosed with compounds. Brain to blood ratios are determined by HPLC and LC/MS/MS analysis following oral administration of the test compounds in mice.

a3b4 nAChRs = a3b4 nAChRs (Homo sapiens, UniProt P30926+P32297); assay: Relative potency at a3b4 nAChRs (epibatidine-induced calcium response), cell line not stated; type: cell-based
Procedure: Nicotinic functional assays are performed using the Molecular Devices FLIPR® Calcium 5 Assay Kit. HEK293 cells overexpressing a3β4, a4β2 or α7 (50,000 cells per well in 100 μl growth media) and are plated in clear bottom black walled 96-well microplates and incubated for 24-48 hours at 37° C., 5% CO2 until a 80-90% confluent monolayer is formed. On the day of the assay, 100 μl of Calcium 5 Dye is added to each well. Following addition of dye, cells are incubated at 25° C. for 60 minutes. Following dye loading, 50 μl of a 5× solution of reference or test compound of appropriate concentration range (0.01-30 μM), prepared in 20 mM HEPES pH 7.4 in HBSS, is added to each well. Plates are then transferred to the Molecular Devices Flexstation® which transfers 50 μL of a 5× solution (500 nM) of epibatine to each well to initiate the Ca+2 flux. Additional wells (in quadruplicate) are prepared with no added test or reference ligand for measurement of 100% flux. The RFU (relative fluorescence units) in the presence of the test or reference compounds is then expressed on the percent scale. The percent inhibition of epibatidine induced Ca^+2 flux is calculated as follows: % inhibition=100%−% RFU (relative fluorescence units). The IC50 values for reference and test compounds are obtained by fitting normalized RFU data using Graphpad Prism software.

Chain of a3b4 nAChRs (P30926 22-498): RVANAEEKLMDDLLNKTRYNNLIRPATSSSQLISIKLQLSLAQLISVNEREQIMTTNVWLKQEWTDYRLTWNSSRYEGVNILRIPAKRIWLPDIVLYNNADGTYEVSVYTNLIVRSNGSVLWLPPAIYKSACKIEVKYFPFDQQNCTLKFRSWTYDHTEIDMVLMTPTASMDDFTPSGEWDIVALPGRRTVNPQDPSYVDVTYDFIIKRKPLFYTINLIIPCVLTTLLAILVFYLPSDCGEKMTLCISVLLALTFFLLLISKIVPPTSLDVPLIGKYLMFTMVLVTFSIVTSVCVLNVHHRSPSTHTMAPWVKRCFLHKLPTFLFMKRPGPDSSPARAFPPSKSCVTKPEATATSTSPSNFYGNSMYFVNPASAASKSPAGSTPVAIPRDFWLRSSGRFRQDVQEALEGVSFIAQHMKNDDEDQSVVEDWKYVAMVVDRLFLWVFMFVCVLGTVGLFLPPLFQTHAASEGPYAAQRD
Chain of a3b4 nAChRs (P32297 32-505): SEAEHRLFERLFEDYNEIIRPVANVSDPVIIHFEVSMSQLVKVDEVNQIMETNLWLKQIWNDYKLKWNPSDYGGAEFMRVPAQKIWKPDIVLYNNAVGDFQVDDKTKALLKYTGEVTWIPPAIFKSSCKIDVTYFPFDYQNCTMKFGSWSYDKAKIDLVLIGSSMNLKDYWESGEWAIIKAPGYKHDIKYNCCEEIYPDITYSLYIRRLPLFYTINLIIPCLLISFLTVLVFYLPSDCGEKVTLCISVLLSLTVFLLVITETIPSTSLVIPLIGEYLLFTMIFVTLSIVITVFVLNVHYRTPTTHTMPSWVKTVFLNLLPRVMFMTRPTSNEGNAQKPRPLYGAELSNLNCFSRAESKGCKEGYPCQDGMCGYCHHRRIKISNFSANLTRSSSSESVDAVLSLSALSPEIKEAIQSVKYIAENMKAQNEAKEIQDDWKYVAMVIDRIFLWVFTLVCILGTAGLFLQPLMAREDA
T1 sequence (P35372 whole entry): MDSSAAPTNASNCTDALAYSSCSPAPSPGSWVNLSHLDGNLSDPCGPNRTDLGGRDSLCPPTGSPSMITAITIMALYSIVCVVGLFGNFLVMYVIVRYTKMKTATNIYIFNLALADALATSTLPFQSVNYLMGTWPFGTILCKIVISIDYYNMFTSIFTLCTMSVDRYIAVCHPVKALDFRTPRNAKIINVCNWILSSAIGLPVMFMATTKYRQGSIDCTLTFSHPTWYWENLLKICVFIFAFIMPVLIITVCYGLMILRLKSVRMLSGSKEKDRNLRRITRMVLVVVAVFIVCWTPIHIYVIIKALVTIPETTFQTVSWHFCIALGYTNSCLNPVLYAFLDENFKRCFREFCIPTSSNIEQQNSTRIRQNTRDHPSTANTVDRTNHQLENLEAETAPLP

| Molecule | Ki (mu opioid receptor (mOR)) | Crossing of the BBB / concentration in brain [1] | Potency as inhibitor of the epibatidine-induced calcium response in a3b4 nAChRs, in words (a3b4 nAChRs; compared with 18-MC and noribogaine) | Ratio from 18-MC (relative potency at a3b4 nAChRs) (a3b4 nAChRs; ratio to 18-MC = 1, lower is more potent) |
| --- | --- | --- | --- | --- |
| CC[C@H]1CC2C[C@H]3c4[nH]c5ccc(O)cc5c4CCN(C2)C13 [Noribogaine, 12-hydroxyibogamine] | 900 nM | cross the BBB and reach micromolar concentrations in brain | – | – |
| Ibogaine | – | – | more potent inhibitors than 18-MC | – |
| COCC[C@H]1CC2CN3CCc4c([nH]c5ccccc45)[C@](C(=O)OC)(C2)[C@H]13 [Compound 18-MC, 18-methoxycoronaridine] | – | cross the BBB and reach micromolar concentrations in brain | – | 1 |
